Data reported in publication PMC7497443, “Imaging CXCR4 Expression with Iodinated and Brominated Cyclam Derivatives” (Molecular Imaging and Biology, 2020).
“Also recorded” adds a separate entry of the source. Where two headings read alike, the source gives them in different places.

What was measured:
[1] = tested on: HIV; conditions: cited from earlier work
[2] = target: T1, CXCR4 (Homo sapiens, UniProt P61073); experiment: Competitive binding assay with U87-CXCR4 cells and 67Ga-Pentixafor; conditions: U87-CXCR4 cells, 67Ga-Pentixafor 4.0 nM, 37 °C, 2 h, triplicate; read-out: IC50 affinity
T1 construct: host or cells: U87 glioma cells transduced with CXCR4 (U87-CXCR4)
T1 sequence (P61073 whole entry): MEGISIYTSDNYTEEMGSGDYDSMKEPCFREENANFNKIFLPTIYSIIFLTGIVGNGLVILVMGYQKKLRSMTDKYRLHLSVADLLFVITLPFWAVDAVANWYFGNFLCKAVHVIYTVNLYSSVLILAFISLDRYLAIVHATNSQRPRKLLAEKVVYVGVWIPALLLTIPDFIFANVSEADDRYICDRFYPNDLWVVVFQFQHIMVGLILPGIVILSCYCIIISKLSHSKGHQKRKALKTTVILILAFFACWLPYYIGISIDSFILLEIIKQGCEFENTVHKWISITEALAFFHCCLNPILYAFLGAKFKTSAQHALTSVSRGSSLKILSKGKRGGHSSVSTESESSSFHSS
Description: In order to determine the affinity of the halogenated cyclam derivatives, competitive binding studies were performed with U87-CXCR4 cells using ^67Ga-Pentixafor (CXCR4 receptor ligand). Briefly, triplicate samples containing 0.5 × 10^6 cells pre-seeded in 6-well plate, about 1.8 kBq of ^67Ga-Pentixafor (4.0 nM) and 0.001–1000 nM of the tested ligands (total volume 1.0 ml) were incubated at 37 °C for 2 h. After incubation, the cells were washed with 2 × 1 ml of ice-cold tris-buffered saline (pH 7.4) and then collected for measurement with a WIZARD 1480 gamma counter (PerkinElmer, Waltham, MA). The IC50 values were estimated using a least squares fitting routine (GraphPad Prism 6, San Diego, CA, USA).
Competitive binding assays were performed using U87-CXCR4 cells (expressing high levels of CXCR4) and ^67Ga-Pentixafor [31, 32] as a radioligand.

[3] = tested on: U87-CXCR4 and U87-WT glioma cells; experiment: Uptake of radiohalogenated cyclam derivatives in glioma cells; assay type: cell-based, human; conditions: 2.0 h incubation at 37 °C
Description: (§1) Glioma (U87-CXCR4 and U87-WT) and lung cancer (H82 and H69) cell lines with different level of CXCR4 expression were utilized for cell uptakes of all synthesized six radiotracers. Each cell line (0.25 × 10^6 per well) was seeded into 6-well plates, and on the next day, triplicate samples containing approximately 1.85 kBq of *Br or *I-labeled ligand were added and kept incubation at 37 °C for 2.0 h. After washing twice with PBS (4 °C) on the ice-bed, the cells were harvested for measurement with the gamma counter.
(§2) The uptake of 6 different radiolabeled cyclam derivatives was studied in 4 glioma and lung cancer cell lines (Fig. 2). The cell lines expressed both “high” (U87-CXCR4 and H69) and “low” (U87-WT and H82) levels of CXCR4, which were confirmed with IHC staining of CXCR4. […] These promising results from in vitro studies supported proceeding to in vivo PET imaging of CXCR4 expression in tumor-bearing animal models, using the newly developed radiolabeled cyclam derivatives.

[4] = tested on: H69 and H82 lung cancer cells; experiment: Uptake of radiohalogenated cyclam derivatives in lung cancer cells; assay type: cell-based, human; conditions: 2.0 h incubation at 37 °C
Description: as §1, §2

[5] = tested on: U87-CXCR4, U87-WT, H69 and H82 s.c. tumors; experiment: Biodistribution in s.c. tumor-bearing animals 24 h after i.v. injection; assay type: in vivo, mice; conditions: n = 3
Description: All animal experiments were approved by the Institutional Animal Care and Utilization Committee of MSKCC. Eight human PCNSL xenograft models established at MSK (CG) were available for study. Female Athymic Nude Foxn (6–8 weeks old; ENVIGO) was used for subcutaneous implantation. Cancer cells, including U87-CXCR4, U87-WT, H69, and H82 (5 × 10^6 cells suspended in […] of cell culture medium/Matrigel [BD Bioscience] [v/v 5 1/1]), were inoculated to the shoulder/flank area of the animal. Twenty to 30 days after the inoculation, imaging and tissue sampling were performed when the tumor sizes were between 100 and 350 mm^3. For orthotopic models, U87-CXCR4 cells (1 × 10^5 cells suspended in 10 μl of cell culture medium) in 30-gauge needle were injected into the right frontal cortex (stereotactic coordinates: bregma + 1.7 mm (anterior), lateral − 0.5 mm (right), and at a depth of 2.5 mm). Individuals performing implantation and stereotactic injections were blinded to the experimental design. […]
After the last PET imaging time point, the animals were euthanized for tissue dissection. […] The total injected radioactivity per animal was determined from the measured radioactivity in an aliquot of the injectate. Data were expressed as percent of injected dose per gram of tissue (%ID/g).

[6] = tested on: U87-CXCR4 s.c. tumors; assay type: in vivo; conditions: for accumulation in U87-CXCR4 s.c. tumors (in words): following i.v. injection; for in vivo de-halogenation / stability on PET imaging: thyroid radioactivity on PET images
Description: All animal experiments were approved by the Institutional Animal Care and Utilization Committee of MSKCC. Eight human PCNSL xenograft models established at MSK (CG) were available for study. Female Athymic Nude Foxn (6–8 weeks old; ENVIGO) was used for subcutaneous implantation. Cancer cells, including U87-CXCR4, U87-WT, H69, and H82 (5 × 10^6 cells suspended in […] of cell culture medium/Matrigel [BD Bioscience] [v/v 5 1/1]), were inoculated to the shoulder/flank area of the animal. Twenty to 30 days after the inoculation, imaging and tissue sampling were performed when the tumor sizes were between 100 and 350 mm^3. For orthotopic models, U87-CXCR4 cells (1 × 10^5 cells suspended in 10 μl of cell culture medium) in 30-gauge needle were injected into the right frontal cortex (stereotactic coordinates: bregma + 1.7 mm (anterior), lateral − 0.5 mm (right), and at a depth of 2.5 mm). Individuals performing implantation and stereotactic injections were blinded to the experimental design.
(§3) Animals were administrated 3.7–11.1 MBq of ^76Br- or ^124I-labeled ligands via tail vein or intraspinal injection under 2 % isoflurane anesthesia. At 1 h and 24 h after injection, PET/CT imaging (or PET imaging) was performed with an Inveon PET/CT system. The tumors were centered in the field of view, and the PET acquisition time was 10 min (or longer if needed, until 50 million events are recorded). The image data were normalized to correct for non-uniformity of response of the PET camera, dead-time count losses, positron branching ratio, and physical decay to the time of injection, but no attenuation, scatter, or partial-volume averaging correction was applied. The calibration factor of both PET scanner was measured with a mouse-size phantom composed of a cylinder uniformly filled with an aqueous solution of ^18F of known activity concentration. The acquired PET/CT (or PET) images were analyzed using Inveon Research Workplace v4.2 software (or ASIPro software). Region of interest (ROI) analysis of the acquired images was performed using ASIPro software (Siemens, Malvern, PA, USA), and the observed maximum pixel value (%ID/cc) was utilized to diminish partial volume effects of tumor. The sequential radioactivity measurements (% injected dose/cc) were plotted vs. time of acquisition.
The imaging and uptake of 6 different radiolabeled cyclam derivatives were studied in subcutaneous tumor-bearing animals (animals bearing either 2 glioma or 2 glioma plus 2 lung cancer tumors) (Fig. 4). […] Radioactivity continued to increase in the U87-CXCR4 tumors but was washed out from the U87 wt (non-CXCR4-exressing) control tumors, over 60 min. […] Biodistribution studies confirmed the imaging studies. Comparing three radiolabeled cyclam derivatives, ^76Br-HZ270-1 was accumulated most avidly by U87-CXCR4 tumors and had the lowest overall systemic organ levels at 24 h post i.v. injection (Table 3). Brain radioactivity was lowest of all organs sampled. Based on these studies, ^76Br-HZ270-1 was selected for imaging intracranial CXCR4-expressing tumors.

[7] = tested on: intracranial U87-CXCR4 tumors; experiment: PET imaging of intracranial U87-CXCR4 xenografts; assay type: in vivo, mice; conditions: i.v. injection
Description: All animal experiments were approved by the Institutional Animal Care and Utilization Committee of MSKCC. Eight human PCNSL xenograft models established at MSK (CG) were available for study. Female Athymic Nude Foxn (6–8 weeks old; ENVIGO) was used for subcutaneous implantation. Cancer cells, including U87-CXCR4, U87-WT, H69, and H82 (5 × 10^6 cells suspended in […] of cell culture medium/Matrigel [BD Bioscience] [v/v 5 1/1]), were inoculated to the shoulder/flank area of the animal. Twenty to 30 days after the inoculation, imaging and tissue sampling were performed when the tumor sizes were between 100 and 350 mm^3. […]
Animals were administrated 3.7–11.1 MBq of ^76Br- or ^124I-labeled ligands via tail vein or intraspinal injection under 2 % isoflurane anesthesia. […] The tumors were centered in the field of view, and the PET acquisition time was 10 min (or longer if needed, until 50 million events are recorded). […] The calibration factor of both PET scanner was measured with a mouse-size phantom composed of a cylinder uniformly filled with an aqueous solution of ^18F of known activity concentration. The acquired PET/CT (or PET) images were analyzed using Inveon Research Workplace v4.2 software (or ASIPro software). […] The sequential radioactivity measurements (% injected dose/cc) were plotted vs. time of acquisition. […]

[8] = tested on: intracranial PCNSL-15 CXCR4-expressing tumors; experiment: PET imaging and autoradiography of intracranial PCNSL-15 tumors; assay type: in vivo, mice
Description: as §3, with “acquisition. […]” for “acquisition.”

| IC50 [2] [nM] | SMILES | Biodistribution, Blood [5] | Biodistribution, Bone [5] [%ID/g] | Biodistribution, Brain [5] [%ID/g] | Biodistribution, Heart [5] [%ID/g] | Biodistribution, Kidneys [5] [%ID/g] | Biodistribution, Liver [5] [%ID/g] | Biodistribution, Spleen [5] [%ID/g] | Biodistribution, U87 CXCR4 tumor [5] [%ID/g] | Biodistribution, U87 WT tumor [5] [%ID/g] | also measured |
| --- | --- | --- | --- | --- | --- | --- | --- | --- | --- | --- | --- |
| – | c1cc(CN2CCCNCCNCCCNCC2)ccc1CN1CCCNCCNCCCNCC1 [AMD3100] | – | – | – | – | – | – | – | – | – | inhibited HIV infection, concentration range [1]: 1 to 10 nM |
| 9.47 ± 2.87 | Brc1cc(CN2CCCNCCNCCCNCC2)ccc1CN1CCCNCCNCCCNCC1 [HZ261] | – | – | – | – | – | – | – | – | – | – |
| 15.9 ± 0.4 | Ic1cc(CN2CCCNCCNCCCNCC2)ccc1CN1CCCNCCNCCCNCC1 [HZ262] | – | – | – | – | – | – | – | – | – | – |
| – | [76Br]c1cc(CNCc2ccccn2)ccc1CN1CCCNCCNCCCNCC1 [^76Br-HZ270-1] | 0.59 ± 0.12 %ID/g | 2.9 ± 0.5 | 0.14 ± 0.04 | 1.7 ± 0.3 | 41.3 ± 24.1 | 7.6 ± 1.3 | 2.1 ± 0.8 | 9.5 ± 1.3 | 1.6 ± 0.7 | U87-CXCR4/U87-wt uptake ratio [3]: 2.96 ± 0.67; radiotracer accumulation in U87-CXCR4 vs U87-WT cells (in words) [3]: highest; H69/H82 uptake ratio [4]: 3.93 ± 0.74; radiotracer accumulation in H69 vs H82 cells (in words) [4]: highest; accumulation in U87-CXCR4 s.c. tumors (in words) [6]: accumulated highest; PET imaging of CXCR4 expression in intracranial U87-CXCR4 tumors [7]: unsuccessful; also recorded: Very low levels of radioactivity were visualized; localization of radioactivity after spinal-CSF injection ([8]; autoradiography with CXCR4 IHC and H&E, PET 1 and 24 h post injection): not localized to CXCR4-expressing tumor; PET imaging of CXCR4 expression in intracranial PCNSL #15 tumors ([8]; i.v. or spinal-CSF injection): unsuccessful |
| – | [76Br]c1cc(CN2CCCNCCNCCCNCC2)ccc1CNCc1ccccn1 [^76Br-HZ270-2] | 1.6 ± 0.5 %ID/g | 1.9 ± 0.6 | 0.53 ± 0.01 | 2.3 ± 0.4 | 53.7 ± 12.6 | 15.3 ± 3.5 | 2.5 ± 0.2 | 4.8 ± 1.6 | 1.5 ± 0.2 | – |
| – | [124I]c1cc(CN2CCCNCCNCCCNCC2)ccc1CN1CCCNCCNCCCNCC1 [^124I-HZ262] | – | – | – | – | – | – | – | – | – | in vivo de-halogenation / stability on PET imaging [6]: greater in vivo stability; in vivo de-halogenation / stability on PET imaging ([6]; listed as 124I-AMD3100): no in vivo de-iodination |
| – | [124I]c1cc(CNCc2ccccn2)ccc1CN1CCCNCCNCCCNCC1 [^124I-HZ271-1] | 1.5 ± .05 %ID/g | 0.99 ± 0.33 | 0.07 ± 0.04 | 2.0 ± 0.4 | 45.0 ± 5.7 | 30 ± 23 | 1.3 ± 0.7 | 2.0 ± 0.3 | 0.96 ± 0.21 | Biodistribution, H69 tumor [5]: 2.3 ± 0.2 %ID/g; Biodistribution, H82 tumor [5]: 1.1 ± 1.0 %ID/g; Biodistribution, Lungs [5]: 2.3 ± 1.4 %ID/g; in vivo de-halogenation / stability on PET imaging [6]: significant decomposition in vivo |
| – | [131I]c1cc(CN2CCCNCCNCCCNCC2)ccc1CN1CCCNCCNCCCNCC1 [^131I-HZ262] | – | – | – | – | – | – | – | – | – | U87-CXCR4/U87-wt uptake ratio [3]: 3.19 ± 1.02; radiotracer accumulation in U87-CXCR4 vs U87-WT cells (in words) [3]: highest; H69/H82 uptake ratio [4]: 3.81 ± 0.40; radiotracer accumulation in H69 vs H82 cells (in words) [4]: highest; accumulation in U87-CXCR4 s.c. tumors (in words) [6]: accumulated highest |

| SMILES | IC50 [2] [nM] | Biodistribution, Blood [5] | Biodistribution, Bone [5] [%ID/g] | Biodistribution, Brain [5] [%ID/g] | Biodistribution, Heart [5] [%ID/g] | Biodistribution, Kidneys [5] [%ID/g] | Biodistribution, Liver [5] [%ID/g] | Biodistribution, Spleen [5] [%ID/g] | Biodistribution, U87 CXCR4 tumor [5] [%ID/g] | Biodistribution, U87 WT tumor [5] [%ID/g] | also measured |
| --- | --- | --- | --- | --- | --- | --- | --- | --- | --- | --- | --- |
| c1ccc(CNCc2ccc(CN3CCCNCCNCCCNCC3)cc2)nc1 [AMD3465, reference compound] | 15 ± 5.8 | – | – | – | – | – | – | – | – | – | – |
